The source of these data is publication doi:10.1101/2024.11.03.621781v1 (bioRxiv, 2024).

Type in all cases: cell-based
The subject of test [1] is HeLa cells. In words: Autophagy flux assay with Bafilomycin A1, LC3B/LAMP2 double immunofluorescence. The note with it: control cells treated with BafA1.
For test [2], the system named is HeLa cells. In words: LC3B immunofluorescence, autophagy induction. The note with it: time-dependent LC3B immunostaining, then return to baseline.
The test system of test [3] is HeLa cells. In words: LC3B lipidation assay by western blot. Conditions: GAPDH loading control. In general terms: A western blot detects proteins with antibodies after separation by electrophoresis.

Regarding `CO/C1=C\C(C)=C\[C@@H](C)[C@@H](O)[C@@H](C)C/C(C)=C/C=C/[C@H](OC)[C@@H]([C@@H](C)[C@@H](O)[C@H](C)[C@@]2(O)C[C@@H](O)[C@H](C)[C@@H](C(C)C)O2)OC1=O` [BafA1, Bafilomycin A1], the “autophagosome accumulation (LC3B puncta) in control cells” value in the test on HeLa cells [1] was “marked accumulation of autophagosomes”. Take `CO[C@H]1C[C@@H]2CC[C@@H](C)[C@@](O)(O2)C(=O)C(=O)N2CCCC[C@H]2C(=O)O[C@H]([C@H](C)C[C@@H]2CC[C@@H](O)[C@H](OC)C2)CC(=O)[C@H](C)/C=C(\C)[C@@H](O)[C@@H](OC)C(=O)[C@H](C)C[C@H](C)/C=C/C=C/C=C/1C` [rapamycin]: the “time of peak autophagy induction” value with HeLa cells [2] was found to be 90 min. Besides, in the test on HeLa cells [3], the “LC3B-II/LC3B-I ratio (LC3B lipidation)” value is recorded as “increased LC3B- II/LC3B-I ratio”.
